Legend:
[1] = system: Hum24; d(T2AG3)4 (DNA, G4) TTAGGGTTAGGGTTAGGGTTAGGG; test: CD melting at 295 nm; conditions: 10 mM Tris-HCl, 0.1 mM EDTA, pH 7.4, pre-formed G4, 2 µM strand
[2] = system: Hum48; d(T2AG3)8 (DNA, G4) TTAGGGTTAGGGTTAGGGTTAGGGTTAGGGTTAGGGTTAGGGTTAGGG; test: CD melting at 295 nm; conditions: 10 mM Tris-HCl, 0.1 mM EDTA, pH 7.4, pre-formed G4, 2 µM strand

SMILES	ΔTm ([1]; 100 mM K+, ligand:DNA 20) [°C]	ΔTm ([2]; 100 mM K+, ligand:DNA 20) [°C]	ΔTm ([1]; 100 mM K+, ligand:DNA 10) [°C]	ΔTm ([2]; 100 mM K+, ligand:DNA 10) [°C]	ΔTm ([1]; 100 mM Na+, ligand:DNA 10) [°C]	ΔTm ([2]; 100 mM Na+, ligand:DNA 10) [°C]
CCOc1cc(-c2nc3ccc(N4CCN(CCO)CC4)cc3[nH]2)cc(-c2nc3ccc(N4CCN(CCO)CC4)cc3[nH]2)c1	5	9	–	–	–	–
OCCN1CCN(c2ccc3[nH]c(-c4cc(OCCOCCOCCOCCOc5cc(-c6nc7cc(N8CCN(CCO)CC8)ccc7[nH]6)cc(-c6nc7cc(N8CCN(CCO)CC8)ccc7[nH]6)c5)cc(-c5nc6cc(N7CCN(CCO)CC7)ccc6[nH]5)c4)nc3c2)CC1	–	–	16	16	–	–
OCCN1CCN(c2ccc3[nH]c(-c4cc(OCCOCCOCCOCCOCCOCCOc5cc(-c6nc7cc(N8CCN(CCO)CC8)ccc7[nH]6)cc(-c6nc7cc(N8CCN(CCO)CC8)ccc7[nH]6)c5)cc(-c5nc6cc(N7CCN(CCO)CC7)ccc6[nH]5)c4)nc3c2)CC1	–	–	22	21	11	13
OCCN1CCN(c2ccc3[nH]c(-c4cc(OCCOCCOCCOCCOCCOc5cc(-c6nc7cc(N8CCN(CCO)CC8)ccc7[nH]6)cc(-c6nc7cc(N8CCN(CCO)CC8)ccc7[nH]6)c5)cc(-c5nc6cc(N7CCN(CCO)CC7)ccc6[nH]5)c4)nc3c2)CC1	–	–	12	18	–	–
